The text below walks through data of ChEMBL document CHEMBL1201862, “PubChem BioAssay data set” (2004).

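Briefly, cells in 96-well plates were exposed to five compound concentrations for 48 h, and endpoints were estimated by linear interpolation. Abbreviation: GI50, concentration required for 50% inhibition of growth.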 Calls of active or inactive are those of the source. Cut-off read from the data, not from the text of the source: active = GI50 up to about 1.1 µM and inactive = higher.

As usually defined, the GI50 is the concentration at which growth is held to half of that of the control.

Holding throughout (test): DTP human tumour cell line panel, 48 h
The subject of test [1] is SF-268.
The test system of test [2] is UO-31.
For test [3], the system named is CCRF-CEM.
Test [4] deals with HOP-62.
The test system of test [5] is NCI-H226.
Test [6] concerns OVCAR-8.
The test system of test [7] is COLO 205.
In test [8] the test system is ACHN.
In test [9] the test system is HOP-92.
Test [10] relates to EKVX.
The test system of test [11] is 786-0.
For test [12], the system named is M14.
In test [13] the test system is LOX IMVI.
Test [14] has as its system UACC-62.
Test [15] has as its system OVCAR-3.
Test [16] relates to NCI-H23.
The test system of test [17] is TK-10.
For test [18], the system named is Malme-3M.

Regarding `CCOc1ccc(NC(=O)CC2SC(N)=NC2=O)cc1` (stereo not drawn), the GI50 in test [1], in test [2], in [3], in test [4], in test [5] and in [6] was > 100 µM (inactive) each time. The GI50 in test [7] is > 100 µM (inactive); in test [8], > 100 µM (inactive); in [9] it was 55.8 µM (inactive); in [10], > 100 µM (inactive); in [11], > 100 µM (inactive); in [12], > 100 µM (inactive). In addition, the GI50 in test [13], in [14], in test [15], in [16], in [17] and in [18] was > 100 µM (inactive) each time.

Take `O=C(Nc1c(Cl)cc([N+](=O)[O-])cc1Cl)C(=O)C(C1OC(=O)c2ccccc21)[N+](=O)[O-]` (stereo not drawn): the GI50 in test [1] was > 100 µM (inactive); in [2], 23.5 µM (inactive); in [3], > 100 µM (inactive); in test [4] it was 81.8 µM (inactive); in [5], > 100 µM (inactive); in test [6], > 100 µM (inactive). Also, the GI50 was > 100 µM (inactive) in [7]; > 100 µM (inactive) in test [8]; 15.1 µM (inactive) in test [9]; 75.9 µM (inactive) in [10]; > 100 µM (inactive) in [11]; > 100 µM (inactive) in test [12]. Further, the GI50 in test [13] is 81.7 µM (inactive); in [14] it was > 100 µM (inactive); in test [15], > 100 µM (inactive); in test [16], > 100 µM (inactive); in test [17], > 100 µM (inactive); in [18], > 100 µM (inactive).

With `CCNC(C)Cc1ccccc1` (stereo not drawn), the GI50 in test [1], in test [2], in [3], in test [4], in test [5] and in [6] was > 100 µM (inactive) in each case. The GI50 in [7], in test [8], in test [9], in test [10], in test [11] and in test [12] was > 100 µM (inactive) throughout. The GI50 in [13], in test [14], in test [15], in [16], in test [17] and in test [18] was > 100 µM (inactive) each time.

On to `Cc1noc(/N=C2\C=C(Nc3onc(C)c3C)C(=O)c3ccccc32)c1C`, for which the GI50 in [1] is 86.3 µM (inactive); in test [2], 17.6 µM (inactive); in [3], > 100 µM (inactive); in [4], > 100 µM (inactive); in test [5], > 100 µM (inactive); in test [6], 16 µM (inactive). Also, the GI50 in test [7], in [8], in test [9], in test [10], in [11] and in test [12] was > 100 µM (inactive) in each case. Moreover, the GI50 in test [13] was 11 µM (inactive); in test [14], 27.7 µM (inactive); in [15], 2.88 µM (inactive); in [16], 27.5 µM (inactive); in [17], > 100 µM (inactive); in test [18], > 100 µM (inactive).

For `CN(/N=C/c1cccc2cccnc12)c1ccccc1`, the GI50 is > 100 µM (inactive) in [1]; > 100 µM (inactive) in test [2]; > 100 µM (inactive) in test [3]; 76.2 µM (inactive) in test [4]; > 100 µM (inactive) in test [5]; > 100 µM (inactive) in [6]. Moreover, the GI50 is > 100 µM (inactive) in test [7]; 99.5 µM (inactive) in test [8]; 51.9 µM (inactive) in test [9]; > 100 µM (inactive) in test [10]; 55.3 µM (inactive) in [11]; > 100 µM (inactive) in test [12]. In addition, the GI50 in test [13] is > 100 µM (inactive); in test [14] it was > 100 µM (inactive); in test [15] it was 13.2 µM (inactive); in [16] it was 59.8 µM (inactive); in [17], 71.1 µM (inactive); in test [18], > 100 µM (inactive).

On to `COc1ccc(N2C(=O)[C@@H]3[C@@H]4CC(C)CC[C@@H]4c4c([nH]c5ccccc45)[C@@H]3C2=O)cc1` (stereo partly drawn), for which the GI50 in [1] was 13.3 µM (inactive); in [2], 17 µM (inactive); in test [3], 24.2 µM (inactive); in [4], 12.6 µM (inactive); in test [5], 7.38 µM (inactive); in test [6], 12.8 µM (inactive). For the same molecule, the GI50 in test [7] was 33 µM (inactive); in test [8], 7.36 µM (inactive); in test [9] it was 5.92 µM (inactive); in test [10], 28.9 µM (inactive); in [11], 7.45 µM (inactive); in test [12], 26.4 µM (inactive). Also, the GI50 in test [13] was 10.5 µM (inactive); in test [14] it was 15.9 µM (inactive); in [15], 19.8 µM (inactive); in test [16], 15.5 µM (inactive); in test [17], 18.8 µM (inactive); in test [18], 34.4 µM (inactive).

As to `COc1cc([C@@H]2c3cc4c(cc3[C@@H](NC(=O)c3ccc(C(C)=O)cc3)C3COC(=O)[C@@H]32)OCO4)cc(OC)c1O` (stereo partly drawn), the GI50 in test [1] is 1.09 µM (active); in test [2], 4.57 µM (inactive); in test [3] it was 0.0849 µM (active); in [4], 0.151 µM (active); in test [5], 0.159 µM (active); in test [6], 1.35 µM (inactive). The GI50 in test [7] was 3.61 µM (inactive); in test [8], 0.189 µM (active); in test [9], 1.19 µM (inactive); in [10], 1.89 µM (inactive); in [11] it was 0.327 µM (active); in [12] it was 1.51 µM (inactive). The GI50 in [13] was 0.289 µM (active); in [14], 0.206 µM (active); in test [15], 2.38 µM (inactive); in test [16] it was 0.264 µM (active); in [17] it was 5.81 µM (inactive); in test [18] it was 0.254 µM (active).

For the molecule `CCOC(=O)NC1CC2CCC1(OC)C=C2C` (stereo not drawn), the GI50 in test [1], in [2], in test [3], in test [4], in test [5] and in test [6] was > 100 µM (inactive) throughout. Moreover, the GI50 in [7], in [8], in test [9], in test [10], in test [11] and in test [12] was > 100 µM (inactive) in each case. In addition, the GI50 in test [13], in [14], in test [15], in test [16], in test [17] and in [18] was > 100 µM (inactive) each time.

Take `O=C1NC(=O)C2C(=O)NC(=O)C1C2(c1ccccc1)c1ccc(Cl)cc1` (stereo not drawn): the GI50 in [1], in [2], in test [3], in test [4], in test [5] and in test [6] was > 100 µM (inactive) each time. Further, the GI50 in [7], in [8], in test [9], in [10], in test [11] and in test [12] was > 100 µM (inactive) each time. For the same molecule, the GI50 in [13], in [14], in [15], in test [16], in test [17] and in test [18] was > 100 µM (inactive) in each case.

`CC(=O)OCC1OC(n2cc([N+](=O)[O-])c(=O)[nH]c2=O)C(OC(C)=O)C(OC(C)=O)C1OC(C)=O` (stereo not drawn): the GI50 in test [1] is > 100 µM (inactive); in test [2], > 100 µM (inactive); in test [3] it was > 100 µM (inactive); in test [4] it was > 100 µM (inactive); in test [5], 42.2 µM (inactive); in [6], > 100 µM (inactive). In addition, the GI50 in [7], in test [8], in test [9], in [10], in test [11] and in test [12] was > 100 µM (inactive) each time. Moreover, the GI50 in test [13], in test [14], in [15], in [16], in [17] and in [18] was > 100 µM (inactive) throughout.

Take `CN/N=C(/Cc1occc(=O)c1O)C(=O)Nc1ccc(C)c(C)c1`: the GI50 in test [1], in [2], in test [3], in test [4], in [5] and in test [6] was > 100 µM (inactive) throughout. Also, the GI50 in [7], in test [8], in test [9], in [10], in test [11] and in test [12] was > 100 µM (inactive) in each case. The GI50 in test [13], in [14], in test [15], in test [16], in [17] and in test [18] was > 100 µM (inactive) throughout.
